Several values for one entry are separate records, joined by “and”; a condition that tells them apart may be missing. Identical values can stand only once.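 Growth conditions: 96-well plates. Treatment: test compound, 48 hours, 5 concentrations. Analysis: linear interpolation between bracketing concentrations; unreached endpoints set to highest concentration. Here, GI50 denotes the concentration required for 50% inhibition of growth. TGI denotes the concentration required for complete inhibition of growth.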
Legend:
Test in all cases: inhibition of tumour cell growth, NCI panel, 48 h
[1] = test system: 786-0 renal
[2] = test system: HOP-62 NSCLC
[3] = test system: LOX IMVI melanoma
[4] = test system: M14 melanoma
[5] = test system: MDA-MB-231 breast
[6] = test system: OVCAR-8 ovarian
[7] = test system: UACC-62 melanoma

## O=C(COC(=O)[C@H](C[Se][Se]C[C@H](NC(=O)c1ccc(Br)cc1F)C(=O)OCC(=O)c1ccc(F)cc1)NC(=O)c1ccc(Br)cc1F)c1ccc(F)cc1
[1]
  GI50: 0.9 µM
  TGI: 2.23 µM
[2]
  GI50: 0.654 µM
  TGI: 2.24 µM
[3]
  GI50: 1.48 µM
  TGI: 3.67 µM
[4]
  GI50: 1.08 µM
  TGI: 2.9 µM
[5]
  GI50: 1.65 µM
  TGI: 4.03 µM
[6]
  GI50: 0.408 µM
  TGI: 1.61 µM
[7]
  GI50: 1.69 µM
  TGI: 4.83 µM

## COc1cc(COC(=O)NC(Cc2cccs2)C(=O)O)c([N+](=O)[O-])cc1OC (stereo not given)
[1]
  TGI: > 100 µM
[2]
  TGI: > 100 µM
[4]
  TGI: > 100 µM
[6]
  TGI: > 100 µM
[7]
  TGI: > 100 µM

## CN(C)C(=O)c1cc2cnc(Nc3ccc(N4CCNCC4)cn3)nc2n1C1CCCC1
[1]
  GI50: 11.4 µM
  TGI: 49.8 µM
[2]
  GI50: 2.09 µM
  TGI: 58.5 µM
[3]
  GI50: 4.44 µM
  TGI: 26.3 µM
[4]
  GI50: 15.7 µM
  TGI: 39.1 µM
[5]
  GI50: 8.48 µM
  TGI: 74.5 µM
[6]
  GI50: 23.7 µM
  TGI: 89.7 µM
[7]
  GI50: 15.4 µM
  TGI: 34 µM

## O=C1C(=O)c2c(ccc3ccccc23)-c2ccccc21
[1]
  GI50: 3.13 µM
  TGI: > 100 µM
[2]
  GI50: 1.9 µM
  TGI: 4.56 µM
[3]
  GI50: 1.38 µM
  TGI: 3.93 µM
[5]
  GI50: 1.63 µM
  TGI: 8.08 µM
[6]
  GI50: 2.11 µM
  TGI: 7.98 µM
[7]
  GI50: 1.57 µM
  TGI: 3.38 µM

## CC(C)(CCc1nc2ccccc2[nH]1)C(=O)O
[1]
  TGI: > 100 µM
[2]
  TGI: > 100 µM
[3]
  TGI: > 100 µM
[4]
  TGI: > 100 µM
[5]
  TGI: > 100 µM
[6]
  TGI: > 100 µM
[7]
  TGI: > 100 µM

## CCc1c[nH]c2ncnc(N3CC[C@](N)(CNC(=O)c4ccc(F)cc4F)C3)c12
[1]
  GI50: 0.479 µM
  TGI: 19.8 µM
[2]
  GI50: 12.8 µM
  TGI: > 100 µM
[3]
  GI50: 26.2 µM
  TGI: > 100 µM
[4]
  GI50: 15.6 µM
  TGI: > 100 µM
[5]
  GI50: 48.5 µM
  TGI: > 100 µM
[6]
  GI50: 28.2 µM
  TGI: > 100 µM
[7]
  GI50: 3.33 µM
  TGI: 45.1 µM

## COc1cc2nccc(Oc3ccc(NC(=O)C4(C(=O)Nc5ccc(F)cc5)CC4)cc3)c2cc1OC
[1]
  GI50: > 10 µM and 5.52 µM
  TGI: > 54.9 µM
[2]
  GI50: > 10 µM and 5.6 µM
  TGI: > 45.3 µM
[3]
  GI50: 6.11 µM and 2.61 µM
  TGI: > 10 µM and 15.2 µM
[4]
  GI50: > 10 µM and 2.9 µM
  TGI: > 10 µM and 18.3 µM
[5]
  GI50: > 10 µM and 3.1 µM
  TGI: > 40.6 µM
[6]
  GI50: > 10 µM and 5.74 µM
  TGI: > 100 µM
[7]
  GI50: 4.74 µM and 1.97 µM
  TGI: > 10 µM and 32.3 µM

## O=C(c1ccccc1)c1ccc(N2C(=O)C3C4c5ccccc5C(/C=C/C(=O)c5ccccn5)(c5ccccc54)C3C2=O)cc1 (stereo not given)
[1]
  GI50: 2.55 µM
  TGI: 6.85 µM
[2]
  GI50: 3.43 µM
  TGI: > 100 µM
[3]
  GI50: 1.56 µM
  TGI: 3.51 µM
[4]
  GI50: 3.4 µM
  TGI: > 100 µM
[5]
  GI50: 2.34 µM
  TGI: 6.4 µM
[6]
  GI50: 2.56 µM
  TGI: > 100 µM
[7]
  GI50: 2.21 µM
  TGI: 7.44 µM

## Cc1cc(C2(c3cc(C)c(O)c4ncccc34)OC(=O)c3ccccc32)c2cccnc2c1O
[1]
  GI50: 0.114 µM
  TGI: > 100 µM
[2]
  GI50: 0.643 µM
  TGI: > 100 µM
[3]
  TGI: > 100 µM
[4]
  GI50: 0.0162 µM
[5]
  GI50: 0.0215 µM
  TGI: 22.7 µM
[6]
  TGI: > 100 µM
[7]
  GI50: 0.0209 µM
  TGI: 14.6 µM

From PubChem BioAssay (NCI)
